The results in this text go back to patent US9371330B2, “Substituted pyrazino[1,2-a]pyrimidines useful as CBP/catenin antagonists for enhancing asymmetric division of somatic stem cells” (University of Southern California, priority 2011, dated 2016).

The experiment has as its system NOD/SCIDIL2R gamma-/- mice. The experiment in a line: leukemia mouse model: hair growth and wound healing. The class given is in vivo. As to conditions: ICG-001 50 mg/kg/d with VDL vs VDL only, 50 mg/kg/day. Here is the method: NOD/SCIDIL2R gamma−/− mice were shaved and sublethally irradiated prior intravenous injection of 50,000 cells per animal. Leukemic animals were treated with a combination of intraperitoneally administered vincristine/dexamethasone/L-Aspariginase (VDL) and ICG-001 (50 mg/kg/d), which was delivered via subcutaneous osmotic pumps to ensure stable plasma levels, with VDL only as a control for 20 days. The animals were checked periodically for survival, hair growth, and wound healing.

Structures are written as SMILES. “Also recorded” adds a separate entry of the source.

As for `O=C1[C@H](Cc2ccc(O)cc2)N2C(=O)CCN(C(=O)NCc3ccccc3)[C@H]2CN1Cc1cccc2ccccc12` [ICG-001], the “healing of pump insertion wounds” value is recorded as “had substantial improved; also recorded: heal quicker”. In addition, the “hair growth on shaved area” value (within two weeks) was “had regrown their hair; also recorded: substantial hair growth covering the entire previously shaved area”.
